Reference: US20150352108A1, “AMINO-PYRIMIDINE COMPOUNDS AS INHIBITORS OF TBK1 AND/OR IKK EPSILON” (Alzheimer's Institute of America, priority 2009, published 2015)
Like-named read-outs stand apart in the source and are kept apart here.

Legend:
[1] = biological target: T1, IKKε (Homo sapiens, UniProt Q14164); assay: In-vitro IKKε kinase assay ([γ33]ATP filter-plate); format: biochemical
T1 construct: His-tag; made in house; host or cells: Sf9 insect cells
T1 sequence (Q14164 1-716): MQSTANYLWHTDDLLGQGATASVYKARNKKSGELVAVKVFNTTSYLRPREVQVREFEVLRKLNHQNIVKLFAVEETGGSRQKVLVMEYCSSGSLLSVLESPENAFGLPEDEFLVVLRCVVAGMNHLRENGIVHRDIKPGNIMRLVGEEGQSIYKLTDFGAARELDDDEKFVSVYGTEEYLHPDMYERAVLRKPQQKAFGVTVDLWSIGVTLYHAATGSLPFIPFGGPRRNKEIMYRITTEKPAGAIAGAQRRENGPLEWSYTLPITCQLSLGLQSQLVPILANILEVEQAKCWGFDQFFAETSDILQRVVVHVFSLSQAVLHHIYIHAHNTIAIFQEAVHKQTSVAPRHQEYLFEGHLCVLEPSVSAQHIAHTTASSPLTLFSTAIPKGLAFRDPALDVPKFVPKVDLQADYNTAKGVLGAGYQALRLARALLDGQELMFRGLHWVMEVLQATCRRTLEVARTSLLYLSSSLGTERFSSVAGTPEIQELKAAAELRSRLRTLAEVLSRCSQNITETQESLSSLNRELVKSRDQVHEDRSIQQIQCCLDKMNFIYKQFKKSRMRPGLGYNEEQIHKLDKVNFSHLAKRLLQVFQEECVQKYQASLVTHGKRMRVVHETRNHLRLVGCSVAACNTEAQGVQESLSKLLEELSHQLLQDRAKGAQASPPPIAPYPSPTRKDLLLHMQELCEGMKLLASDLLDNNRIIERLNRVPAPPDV
Procedure, shortened: (§1)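 Phosphorylation of casein or myelin basic protein was counted by P-81 filter capture after 30-45 min reactions stopped with phosphoric acid, with counts normalized to DMSO after background subtraction. ATP was twice Km: 60 μM for TBK1 and 32 μM for IKKε, plus [γ33]ATP. Sf9-expressed His-tag enzymes were used at normal/sensitized levels of 0.1/0.02 μg/ml (TBK1) and 0.1/0.015 μg/ml (IKKε).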

[2] = biological target: T2, TBK1 (Homo sapiens, UniProt Q9UHD2); assay: In-vitro TBK1 kinase assay ([γ33]ATP filter-plate); format: biochemical
T2 construct: His-tag; made in house; host or cells: Sf9 insect cells
T2 sequence (Q9UHD2 1-729): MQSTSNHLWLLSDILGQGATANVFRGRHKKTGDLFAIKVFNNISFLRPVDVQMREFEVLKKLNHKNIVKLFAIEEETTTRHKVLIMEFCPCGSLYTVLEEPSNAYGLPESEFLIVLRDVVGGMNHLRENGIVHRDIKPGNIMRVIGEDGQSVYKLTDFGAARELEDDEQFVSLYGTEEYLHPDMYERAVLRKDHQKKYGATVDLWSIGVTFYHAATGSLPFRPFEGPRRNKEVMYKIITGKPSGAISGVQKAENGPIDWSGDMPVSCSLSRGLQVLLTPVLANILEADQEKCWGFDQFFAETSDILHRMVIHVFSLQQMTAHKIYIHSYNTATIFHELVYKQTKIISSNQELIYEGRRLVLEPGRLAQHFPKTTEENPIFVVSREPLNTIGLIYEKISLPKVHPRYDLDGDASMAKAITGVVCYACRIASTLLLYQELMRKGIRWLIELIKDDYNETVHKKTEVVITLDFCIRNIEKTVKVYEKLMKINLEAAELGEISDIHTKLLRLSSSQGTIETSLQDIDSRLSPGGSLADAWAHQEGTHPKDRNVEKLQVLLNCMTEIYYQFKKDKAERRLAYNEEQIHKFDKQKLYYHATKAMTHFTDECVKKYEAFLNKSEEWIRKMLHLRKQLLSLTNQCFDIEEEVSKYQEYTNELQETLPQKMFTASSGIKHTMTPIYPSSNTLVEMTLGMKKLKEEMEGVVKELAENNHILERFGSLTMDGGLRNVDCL
Procedure, shortened: as §1

[3] = tested on: IKKε-mediated phosphorylation of IRF3; assay: In-situ phosphorylation of IRF3 (pIRF3 Ser396 ELISA) in HEK293T cells cotransfected with IRF3 and IKKε; format: cell-based; details: Homo sapiens, HEK-293T
Procedure, shortened: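 Cells for the IRF7 Western blots carried IRF7 and TBK1 plasmids, were seeded at 150,000/well, exposed to compound overnight and probed for pSer477/Ser479 IRF7. The ELISA readout used IRF3 + IKKε-cotransfected HEK293T at 20,000/well with 20 h treatment, quantifying pSer396 IRF3 relative to DMSO, plus a parallel CellTiter-Glo viability check.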

[4] = text bins, read-out: IC50 for inhibition of the kinase activity of IKKε
[5] = text bins, read-out: IC50 for inhibition of the kinase activity of TBK1
[6] = HEK293T cells, 20 hours, text bins, read-out: IC50 for inhibition of the in-situ IKKε-mediated phosphorylation of IRF3
[7] = HEK293T cells in culture, Table 3, read-out: pIRF3 ELISA IC50

SMILES	IC50 [1, 4]	IC50 [2, 5]	IC50 [3, 6]	IC50 ([1]; Table 3, read-out: IKKε IC50)	IC50 ([2]; Table 3, read-out: TBK1 IC50)	IC50 [3, 7]
COc1ccc(Nc2nccc(-c3ccc(OC4CCOCC4)c(C#N)c3)n2)cc1OCCCN1CCN(C(C)C)CC1 [compound 523, 5-{2-[(4-methoxy-3-{3-[4-(propan-2-yl)piperazin-1-yl]propoxy}phenyl)amino]pyrimidin-4-yl}-2-(tetrahydro-2H-pyran-4-yloxy)benzonitrile]	< 5 nM	< 10 nM	< 100 nM	–	–	–
N#Cc1cc(-c2ccnc(Nc3ccc(N4CCOCC4)cc3)n2)ccc1OC1CCN(S(N)(=O)=O)C1 (stereo not drawn) [Example 225, 3-[2-cyano-4-(2-{[4-(morpholin-4-yl)phenyl]amino}pyrimidin-4-yl)phenoxy]pyrrolidine-1-sulfonamide]	< 5 nM	< 10 nM	100 to 250 nM	–	–	–
N#Cc1cc(-c2ccnc(Nc3cccc(N)c3)n2)ccc1OC1CCOCC1 [compound 393, 5-{2-[(3-Aminophenyl)amino]pyrimidin-4-yl}-2-(tetrahydro-2H-pyran-4-yloxy)benzonitrile]	< 5 nM	< 10 nM	< 100 nM	–	–	–
N#Cc1cc(-c2ccnc(Nc3ccc(N4CCOCC4)cc3)n2)ccc1NCc1ccccn1 [Example 64, 5-(2-{[4-(Morpholin-4-yl)phenyl]amino}pyrimidin-4-yl)-2-[(pyridin-2-ylmethyl)amino] benzonitrile]	5 to 50 nM	< 10 nM	250 to 500 nM	–	–	–
CC1(COc2ccc(-c3ccnc(Nc4ccc(N5CCOCC5)cc4)n3)cc2C#N)COC1 [compound 444, 2-[(3-Methyloxetan-3-yl)methoxy]-5-(2-{[4-(morpholin-4-yl)phenyl]amino}pyrimidin-4-yl)benzonitrile]	< 5 nM	< 10 nM	< 100 nM	–	–	–
N#Cc1cc(-c2ccnc(Nc3cccc(NC(=O)N4CCC(O)C4)c3)n2)ccc1OC1CCOCC1 (stereo not drawn) [compound 536, N-[3-({4-[3-Cyano-4-(tetrahydro-2H-pyran-4-yloxy)phenyl]pyrimidin-2-yl}amino)phenyl]-3-hydroxypyrrolidine-1-carboxamide]	< 5 nM	< 10 nM	< 100 nM	0.3 nM	1.3 nM	61.9 nM
COc1cc(Nc2nccc(-c3ccc(OC4CCOCC4)c(C#N)c3)n2)ccc1S(=O)(=O)N(C)C1CCN(C)CC1 [Example 212]	< 5 nM	< 10 nM	< 100 nM	–	–	–
CN1CCN(C(=O)Nc2ccc(Nc3nccc(-c4ccc(OC5CCOCC5)c(C#N)c4)n3)cc2)CC1 [Example 20, N-[4-({4-[3-cyano-4-(tetrahydro-2H-pyran-4-yloxy)phenyl]pyrimidin-2-yl}amino)phenyl]-4-methylpiperazine-1-carboxamide]	< 5 nM	< 10 nM	250 to 500 nM	–	–	–
COc1cc(Nc2nccc(-c3ccc(OC4CCOCC4)c(C#N)c3)n2)ccc1C(=O)NCCN1CCCC1 [compound 504, 4-({4-[3-cyano-4-(tetrahydro-2H-pyran-4-yloxy)phenyl]pyrimidin-2-yl}amino)-2-methoxy-N-[2-(pyrrolidin-1-yl)ethyl]benzamide]	< 5 nM	< 10 nM	< 100 nM	–	–	–
COc1cc(Nc2nccc(-c3ccc(OC4CCOCC4)c(C#N)c3)n2)ccc1C(=O)N1CC(OC)C1 [compound 484, 5-[2-({3-Methoxy-4-[(3-methoxyazetidin-1-yl)carbonyl]phenyl}amino)pyrimidin-4-yl]-2-(tetrahydro-2H-pyran-4-yloxy)benzonitrile]	< 5 nM	10 to 100 nM	< 100 nM	–	–	–
N#Cc1cc(-c2ccnc(Nc3ccc(CN4CCOCC4)cc3)n2)ccc1OC1CCOCC1 [compound 510, 5-(2-{[4-(morpholin-4-ylmethyl)phenyl]amino}pyrimidin-4-yl)-2-(tetrahydro-2H-pyran-4-yloxy)benzonitrile]	< 5 nM	< 10 nM	< 100 nM	–	–	–
CN1CCN(c2ccc(Nc3nccc(-c4ccc(OC5CCOCC5)c(C#N)c4)n3)cc2)CC1 [Example 178, 5-(2-{[4-(4-methylpiperazin-1-yl)phenyl]amino}pyrimidin-4-yl)-2-(tetrahydro-2H-pyran-4-yloxy)benzonitrile]	< 5 nM	< 10 nM	< 100 nM	–	–	–
COCCNC(=O)c1ccc(Nc2nccc(-c3ccc(NC(=O)C4CC4)c(C#N)c3)n2)cc1 [compound 537]	5 to 50 nM	10 to 100 nM	100 to 250 nM	–	–	–
N#Cc1cc(-c2ccnc(Nc3ccc(N4CCOCC4)cc3)n2)ccc1NC(=O)CC(F)(F)F [Example 93, N-[2-cyano-4-(2-{[4-(morpholin-4-yl)phenyl]amino}pyrimidin-4-yl)phenyl]-3,3,3-trifluoropropanamide]	< 5 nM	< 10 nM	100 to 250 nM	0.7 nM	0.3 nM	139 nM
COc1cc(Nc2nccc(-c3ccc(OC4CCOCC4)c(C#N)c3)n2)ccc1OCCOCCN [Example 21, 5-[2-({4-[2-(2-aminoethoxy)ethoxy]-3-methoxyphenyl}amino)pyrimidin-4-yl]-2-(tetrahydro-2H-pyran-4-yloxy)benzonitrile]	< 5 nM	< 10 nM	< 100 nM	–	–	–
COc1ccc(-c2ccnc(Nc3ccc(N4CCOCC4)c(OC)c3)n2)cc1C#N [Example 157, 2-Methoxy-5-(2-{[3-methoxy-4-(morpholin-4-yl)phenyl]amino}pyrimidin-4-yl)benzonitrile]	< 5 nM	< 10 nM	250 to 500 nM	–	–	–
N#Cc1cc(-c2ccnc(Nc3ccc(F)c(OCCN)c3)n2)ccc1OC1CCOCC1 [compound 640, 5-(2-{[3-(2-Aminoethoxy)-4-fluorophenyl]amino}pyrimidin-4-yl)-2-(tetrahydro-2H-pyran-4-yloxy)benzonitrile]	< 5 nM	< 10 nM	100 to 250 nM	–	–	–
COc1cc(Nc2nccc(-c3ccc(OC4CCOCC4)c(C#N)c3)n2)ccc1S(=O)(=O)NCCCn1ccnc1 [Example 83, 4-({4-[3-cyano-4-(tetrahydro-2H-pyran-4-yloxy)phenyl]pyrimidin-2-yl}amino)-N-[3-(1H-imidazol-1-yl)propyl]-2-methoxybenzene-sulfonamide]	< 5 nM	< 10 nM	100 to 250 nM	–	–	–
CCN1CCN(Cc2ccc(Nc3nccc(-c4ccc(OC5CCN(C(=O)[C@H](C)O)CC5)c(C#N)c4)n3)cc2)CC1 [compound 508, 5-[2-({4-[(4-ethylpiperazin-1-yl)methyl]phenyl}amino)pyrimidin-4-yl]-2-({1-[(2S)-2-hydroxypropanoyl]piperidin-4-yl}oxy)benzonitrile]	5 to 50 nM	10 to 100 nM	100 to 250 nM	–	–	–
COc1cc(Nc2nccc(-c3ccc(OC4CCOCC4)c(C#N)c3)n2)ccc1OCCOCCNS(=O)(=O)N1CCN(C)CC1 [Example 27, N-(2-{2-[4-({4-[3-cyano-4-(tetrahydro-2H-pyran-4-yloxy)phenyl]pyrimidin-2-yl}amino)-2-methoxyphenoxy]ethoxy}ethyl)-4-methylpiperazine-1-sulfonamide]	< 5 nM	< 10 nM	250 to 500 nM	–	–	–
